# Measurements as given in PubChem BioAssay AID434987 (Southern Research Specialized Biocontainment Screening …, 2010).
# Active and inactive are the calls of the source. No rule for the calls is given here.
# Test system: M. tuberculosis H37Rv growth inhibition with meropenem
# Experiment: dose response, H37Rv, with and without meropenem (AID 434987);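 also: growth over 7 days at 37 °C before Alamar Blue read on day 9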
# [1] = M. tuberculosis H37Rv growth inhibition, measured here: IC50 without meropenem
# [2] = M. tuberculosis H37Rv growth inhibition, measured here: IC90 without meropenem
# [3] = measured here: IC90 with meropenem
Compound,IC50,IC50 [1] [µM],IC90 [2] [µM],IC90 [3] [µM]
Cc1ccc(C(=O)NCCc2nnc3ccc(SCC(=O)Nc4ccccc4C)nn23)cc1,> 100 µM (inactive),> 100,> 100,> 100
O=C1/C(=C/C=C/c2ccco2)SC(=S)N1c1ccc(O)cc1,> 100 µM (inactive),> 100,> 100,> 100
C[C@H]1C=CC(=O)O[C@H]1c1ccccc1,21 µM (inactive),43.7,60.6,49.5
Cc1cccc(Cl)c1NC(=S)NN,36 µM (inactive),44.5,59.5,55.1
C[C@H](NC(=O)c1[nH]cnc1C(=O)Nc1ccc(Cl)cc1)C(=O)OC(C)(C)C,10.4 µM,> 100,> 100,> 100
O=c1[nH]c(/C=C/c2cccc(Br)c2)nc2ccccc12,> 100 µM (inactive),> 100,> 100,> 100
Cc1ccc(NC(=O)CSc2n[nH]c(-c3ccco3)n2)cc1,> 100 µM (inactive),> 100,> 100,> 100
CCOC(=O)c1ccc(NC(=O)Cc2coc3cc4c(cc23)CCC4)cc1,> 100 µM (inactive),> 100,> 100,> 100
CCOC(=O)Cn1nc(-c2ccc(C)cc2)c2ccccc2c1=O,17.5 µM,> 100,> 100,> 50
Cc1ccccc1OCC(=O)Nc1ccccc1N1CCCCC1,5.94 µM,96.4,> 100,13.5
OCCOCCn1c(C2CCCN2c2nc(-c3ccc(F)cc3)cs2)nc2cc(Cl)c(Cl)cc21 (configuration not stated),> 100 µM (inactive),> 100,> 100,> 100
O=C(Nc1cccc(C(F)(F)F)c1)N1CCC(c2nc(-c3ccc(F)cc3)no2)CC1,> 100 µM (inactive),> 100,> 100,> 100
CC1(C)CC(=O)c2cc(C(=O)NCc3ccco3)c(=O)n(-c3ccccc3)c2C1,> 100 µM (inactive),> 100,> 100,> 100
COc1cc(-c2nc(S(=O)(=O)c3ccc(C)cc3)c(N3CCOCC3)o2)cc(OC)c1OC,> 100 µM (inactive),> 100,> 100,> 100
S=c1nccc(-c2ccc3c(c2)CCO3)[nH]1,> 100 µM (inactive),> 100,> 100,> 100
CCOc1ccc(-c2nnc(SCC(=O)N3CCOCC3)o2)cc1,> 100 µM (inactive),> 100,> 100,> 100
Cc1c(-c2ccncc2)oc2ccc(Br)cc2c1=O,> 100 µM (inactive),> 100,> 100,> 100
Cc1cccc(Nc2nnc(SCC(=O)Nc3ncc(C(F)(F)F)cc3Cl)s2)c1C,7.31 µM (inactive),13.4,> 100,21.5
Cc1[nH]n(-c2ccccc2)c(=O)c1/C=N/NC(=O)c1cccc([N+](=O)[O-])c1,5.43 µM,34.2,55.1,70.7
COc1ccccc1N1CCN(S(=O)(=O)c2ccc3nc(-c4ccccc4)[nH]c3c2)CC1,> 100 µM (inactive),> 100,> 100,> 100
CC[C@@](C)(NS(=O)(=O)OCC(Cl)(Cl)Cl)c1ccccc1,50.1 µM (inactive),95,> 100,54.8
CCCCCCCN(C(=O)CCl)c1ccccc1C,4.49 µM,11.8,37.3,35.2
Cc1ccc2c(c1)CCCN2C(=O)c1cc2ccccc2oc1=O,22.9 µM,> 100,> 100,> 25
